In patent US20220411362A1, “DITERPENOID COMPOUNDS THAT ACT ON PROTEIN KINASE C (PKC)” (K-Gen, Inc., priority 2019, published 2022):
Like-named read-outs stand apart in the source and are kept apart here.

How the values were obtained:
[1] = test system: A549 non-small cell lung cancer cell line; assay: Proliferation of A549 (CellTiter Glo); format: cell-based; conditions: Homo sapiens, A549, 96 h, read-out: IC50 μM (A549 Cell Line)
How it was run: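 A549 cells (K-Ras mutant) seeded 1,000/well, 24 h at 37° C, then treated with 3-fold serial dilutions (final DMSO ≤0.25%) for 96 h. Viability by CellTiter Glo luminescence; % inhibition vs DMSO-only Max, curve-fit to give IC50, relative IC50 and % top inhibition.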

[2] = biological target: T1, C1b domain of human PKD1 (PKCμ) (Homo sapiens, UniProt Q15139); assay: biochemical; format: binding
T1 construct: Genes encoding C1b domains of human PKCα, δ, ε, θ, and PKD1 (PKCμ) were synthesized; made in house; host or cells: E. coli BL21(DE3)
T1 sequence (Q15139 270-320 limits assumed): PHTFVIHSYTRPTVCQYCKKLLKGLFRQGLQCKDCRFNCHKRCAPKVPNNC
How it was run: (§1)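 Recombinant GST-C1b domains (E. coli-expressed) or full-length human PKC competed against tracer ^3H-PDBu; incubation 10 min at 37°C then 20 min on ice, bound radioligand filter-trapped and scintillation-counted. IC50 fitted and converted to Ki via Cheng-Prusoff using experimentally determined Kd per protein preparation.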

C1b domain of human PKCδ = biological target: T2, C1b domain of human PKCδ (Homo sapiens, UniProt Q05655); assay: Competitive 3H-PDBu binding to C1b domain of PKCδ; conditions: Ki PKCδ, 3H-PDBu competition
T2 construct: Genes encoding C1b domains of human PKCα, δ, ε, θ, and PKD1 (PKCμ) were synthesized; made in house; host or cells: E. coli BL21(DE3)
How it was run: as §1

[3] = test system: phosphorylation of PKCμ, PKCδ and Erk1/2 in A549 lung cancer cells; format: cell-based; conditions: 30 minutes
Description: Cells were then treated with different drugs at indicated concentrations for 30 minutes. […] Imagequant LAS4000 (GE) was used to scan membranes if secondary antibodies anti-mouse IgG HRP conjugate or anti-rabbit IgG HRP conjugate (dilutions from 1:2000-1:10000) were used. For ProteinSimple Wes system, manufacture's procedure was followed (ProteinSimple 12-230 kDa Wes Separation Module) for sample preparation, loading, running, and data analysis.
Phosphorylation of these sites has been linked to acute activation or catalytic activity of the PKC isoforms and Erk1/2. High level of phosphorylation indicates strong activation.

C1b domain of human PKCα = biological target: T3, C1b domain of human PKCα (Homo sapiens, UniProt P17252); assay: biochemical; format: binding; conditions: 3H-PDBu competition; for Ki: Ki PKCα
T3 construct: Genes encoding C1b domains of human PKCα, δ, ε, θ, and PKD1 (PKCμ) were synthesized; made in house; host or cells: E. coli BL21(DE3)
How it was run: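 Competitive binding against 3H-PDBu tracer used recombinant GST-C1b fusion protein expressed in E. coli. Incubation ran 10 min at 37°C with shaking, then 20 min on ice, followed by filtration and scintillation counting of trapped 3H-PDBu. Affinity was derived using each protein preparation's experimentally determined Kd for 3H-PDBu.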

[4] = test system: KP-4 (Pancreatic) cell line; assay: Proliferation of KP-4; format: cell-based; conditions: Homo sapiens, KP-4, read-out: IC50 in μM KP-4 (Pancreatic)
Description: (§2) The diterpenoid compounds were tested in A549, a non-small cell lung cancer cell line harboring a K-Ras activating mutation. Briefly, A549 cells at a density of 1,000 cells/well were seeded in 96-well plates and incubated at 37° C. for 24 hours. A series of different concentrations of compound stocks (500×) were prepared by 3-fold serial dilution in DMSO. These compounds were further diluted in culture media and then added to cells so that the final DMSO concentration was not exceeding 0.25%. After 96 hours of incubation, 50 μL of CellTiter Glo reagent (Promega) was added to each well and luminescence was measured after 10 minutes using EnVision (PerkinElmer). Luminescence from cells treated with DMSO alone was set as Max and % of inhibition was calculated as follows: Inhibition %=(Max−Sample value)/Max×100. Data was analyzed using XL-fit software (ID Business Solutions Ltd.) and IC50, relative IC50, and % of top inhibition was calculated. Some of the compounds in this disclosure were very potent in blocking proliferation of A549 lung cancer cells at low nM range. In addition, potency of inhibiting A549 proliferation correlated well with its binding affinity to PKCs for this series of compounds. In other words, higher affinity binders had stronger inhibitory effects on A549 proliferation. This further support the notion that activation, rather than inhibition, of certain PKC isoforms is required to block proliferation of cancer cells, some of which may harbor K-Ras mutations. This is in sharp contrast to previous literature and common belief that inhibition of PKC is necessary to block cancer cell growth (Kang, 2014, New Journal of Science, 2014:1-36). Data presented here is in agreement with recent findings that many loss-of-function but not gain-of-function mutations of PKC isoforms have been identified in many human cancers (Antal et al., 2015, Cell, 160:489-502).
(§3) The compounds in this disclosure were tested for their potency in blocking proliferation of a few other cancer cells lines, including K-Ras mutant pancreatic cell lines Panc2.13 and KP-4, leukemia cell line HL-60, and lymphoma cell lines Namalwa and Mino. Similar procedures as in Example 67 were followed. Initial cell numbers seeded in 96-well plates were different for different cell lines: 3000 cells/well for Panc2.13; 800-1000 cells/well for KP-4; 5000 cells/well for HL-60; 5000-10000 cells/well for Namalwa and Mino. A ratio ratio of (IC50 of K01)/(IC50 of compound) (data in parenthesis in Table 5) was used to normalize the compound potency from different assay batches to a common comparator […].

[5] = test system: HL-60 (Leukemia) cell line; assay: Proliferation of HL-60; format: cell-based; conditions: for ratio of (IC50 of K01)/(IC50 of compound), HL-60: value in parenthesis; for IC50: Homo sapiens, HL-60, read-out: IC50 in μM HL-60 (Leukemia)
Description: as §2, §3

[6] = test system: Panc2.13 (Pancreatic) cell line; assay: Proliferation of Panc2.13; format: cell-based
Description: as §2, §3

C1b domain of human PKCε = biological target: T4, C1b domain of human PKCε (Homo sapiens, UniProt Q02156); assay: Competitive 3H-PDBu binding to C1b domain of PKCε
T4 construct: Genes encoding C1b domains of human PKCα, δ, ε, θ, and PKD1 (PKCμ) were synthesized; made in house; host or cells: E. coli BL21(DE3)
Description: (§4) Compounds described in this disclosure were tested for binding affinity to C1b domain of PKC isoforms. Compound binding affinity to C1b domain of PKC isoforms was derived from competitive binding assay using radioactive tracer ^3H-PDBu and recombinant GST-C1b or full-length of human PKC proteins based on modified procedures from Methods in Molecular Biology, vol.
(§5) Genes encoding C1b domains of human PKCα, δ, ε, θ, and PKD1 (PKCμ) were synthesized and inserted into pGEX-2TK or pGEX-4T1 vectors for expression and production of GST-C1b proteins in E. coli BL21(DE3) via IPTG induction. The target proteins were purified by glutathione sepharose 4B and followed by ion exchange chromatography if needed to achieve purity >70%. Aliquots of the purified proteins were stored at −80 degree for binding assay (storage buffer: 20 mM Tris pH 8.0, 200 mM NaCl, 10% glycerol, 1 mM DTT).
(§6) The plate was incubated at 37° C. on a shaker at 300 rpm for 10 minutes and then put on ice for 20 minutes. […] The bottom of the filter plate was sealed and 50 μL of MicroScint-20 (PerkinElmer) cocktail was added to each well. ^3H-PDBu trapped in each well was counted using PerkinElmer MicroBeta2 Reader. Data were analyzed using GraphPad Prism5 with the model “log(inhibitor) vs. response-variable slope” to fit the IC50, and then IC50 was transformed to Ki using Cheng-Prusoff equation: Ki=IC50/(1+added radio ligand/Kd). Kd is the binding affinity of each protein preparation to ^3H-PDBu, determined experimentally.

[7] = test system: Mino (Lymphoma) cell line; assay: Proliferation of Mino; format: cell-based; conditions: for IC50: Homo sapiens, MINO, read-out: IC50 in μM Mino (Lymphoma); for ratio of (IC50 of K01)/(IC50 of compound), Mino: value in parenthesis
Description: as §2, §3

C1b domain of human PKCθ = biological target: T5, C1b domain of human PKCθ (Homo sapiens, UniProt Q04759); assay: Competitive 3H-PDBu binding to C1b domain of PKCθ
T5 construct: Genes encoding C1b domains of human PKCα, δ, ε, θ, and PKD1 (PKCμ) were synthesized; made in house; host or cells: E. coli BL21(DE3)
T5 sequence (Q04759 231-281 limits assumed): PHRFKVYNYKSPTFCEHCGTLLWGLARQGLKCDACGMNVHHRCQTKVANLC
Description: as §4, §5, §6

[8] = test system: Namalwa (Lymphoma) cell line; assay: Proliferation of Namalwa; format: cell-based; conditions: for ratio of (IC50 of K01)/(IC50 of compound), Namalwa: value in parenthesis; for IC50: read-out: IC50 in μM Namalwa (Lymphoma)
Description: as §2, §3

T2 sequence (Q05655 230-280 limits assumed): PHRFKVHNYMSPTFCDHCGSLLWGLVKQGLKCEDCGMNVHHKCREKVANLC
T4 sequence (Q02156 242-292 limits assumed): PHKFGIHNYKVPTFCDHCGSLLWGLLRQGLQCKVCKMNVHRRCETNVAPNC

| Structure (SMILES) | IC50 [1] [µM] | Ki [2] [nM] | Ki (C1b domain of human PKCδ) [nM] | phosphorylation of PKC (PKD/PKCμ), PKCδ and Erk1/2 ([3]; Western blot, concentration not given, compared with enantiomer K101-C1327) | Ki (C1b domain of human PKCα) [nM] | IC50 [4] [µM] | ratio of (IC50 of K01)/(IC50 of compound), HL-60 [5] | IC50 [5] [µM] | ratio of (IC50 of K01)/(IC50 of compound), Panc2.13 ([6]; Panc2.13, value in parenthesis) | IC50 ([6]; read-out: IC50 in μM Panc2.13 (Pancreatic)) [µM] | Ki (C1b domain of human PKCε) [nM] | IC50 [7] [µM] | ratio of (IC50 of K01)/(IC50 of compound), Mino [7] | Ki (C1b domain of human PKCθ) [nM] | ratio of (IC50 of K01)/(IC50 of compound), Namalwa [8] | IC50 [8] [µM] | phosphorylation of PKC (PKD/PKCμ), PKCδ and Erk1/2 ([3]; 3 μM, Western blot) | phosphorylation of PKC (PKD/PKCμ), PKCδ and Erk1/2 ([3]; 0.3 μM, Western blot (FIG. 1)) | Ki PKCα (C1b domain of human PKCα) |
| --- | --- | --- | --- | --- | --- | --- | --- | --- | --- | --- | --- | --- | --- | --- | --- | --- | --- | --- | --- |
| CC1=C[C@H]2[C@@]3(O)[C@H](C)C[C@]4(OC(=O)[C@H](N)CC5CCCCC5)[C@H]([C@@H]3C=C(CO)C[C@]2(O)C1=O)C4(C)C [Compound K101-C1337] | 0.2 to 0.6 | 5 to 10 | 1 to 30 | induced much lower levels of phosphorylation | 1000 to 2000 |  |  |  |  |  |  |  |  |  |  |  |  |  |  |
| CC1=C[C@H]2[C@@]3(O)[C@H](C)C[C@]4(OC(=O)[C@@H](N)CCc5ccccc5)[C@H]([C@@H]3C=C(CO)C[C@]2(O)C1=O)C4(C)C [Compound K101-C1318] | 0.1 to 0.2 | < 5 | 5 to 10 |  | 100 to 200 | 0.1 to 0.2 | 3.21 | 0.1 to 0.2 | 4.28 | 0.2 to 0.6 | 30 to 60 | 0.01 to 0.03 | 3.18 | 1 to 30 | 0.93 | 0.06 to 0.1 |  |  |  |
| CC1=C[C@H]2[C@@]3(O)[C@H](C)C[C@]4(OC(=O)CCc5ccncc5)[C@H]([C@@H]3C=C(CO)C[C@]2(O)C1=O)C4(C)C [Compound K101-C1315] | 1 to 2 | 30 to 60 | 100 to 200 |  | > 8000 |  |  |  |  |  |  |  |  |  |  |  | induced phosphorylation |  |  |
| CC1=C[C@H]2[C@@]3(O)[C@H](C)C[C@]4(OC(=O)CCc5ncc(-c6ccc(Cl)cc6)o5)[C@H]([C@@H]3C=C(CO)C[C@]2(O)C1=O)C4(C)C [Compound K101-C1321] | 0.03 to 0.06 | < 5 | < 5 |  |  |  | 5.71 | 0.06 to 0.1 |  |  |  | 0.01 to 0.03 | 5.36 |  | 1.15 | 0.03 to 0.06 |  | induced high levels of phosphorylation | E (E=>60 nM and ≤10 nM) |
